Source: ChEMBL document CHEMBL4308834, “Novel Allosteric Activators for Ferroptosis Regulator Glutathione Peroxidase 4” (J Med Chem, 2018)
The source made the active and inactive calls. The rule behind the calls is not given here.

Assays:
Homo sapiens [1] = species: Homo sapiens; test: (§1) Activation of recombinant His-tagged human cytosolic GPX4 U46C mutant expressed in Escherichia coli M15 assessed as increase in oxidized glutathione-mediated oxidation of NADPH to NADP+ at 200 uM using tert-butyl hydroperoxide as substrate preincubated for 5 mins followed by substrate addition measured for 6 mins by glutathione reductase enzyme coupled fluorescence assay relative to control
Homo sapiens [2] = species: Homo sapiens; test: as §1, with “NADP+” for “NADP+ at 200 uM”, “assay” for “assay relative to control”
Homo sapiens [3] = species: Homo sapiens; test: as §1, with “0.4 to 250” for “200”
Homo sapiens [4] = species: Homo sapiens; test: (§2) Activation of recombinant human GPX4 D21A/D23A/U46C mutant expressed in Escherichia coli M15 assessed as increase in oxidized glutathione-mediated oxidation of NADPH to NADP+ using tert-butyl hydroperoxide as substrate preincubated for 5 mins followed by substrate addition measured for 6 mins by glutathione reductase enzyme coupled fluorescence assay relative to GPX4 U46C mutant control
[5] = target: Phospholipid hydroperoxide glutathione peroxidase GPX4 (Mus musculus) (UniProt O70325); test: Activation of GPX4 in MEF assessed as increase in oxidized glutathione-mediated oxidation of NADPH to NADP+ using tert-butyl hydroperoxide as substrate preincubated for 5 mins followed by substrate addition measured for 6 mins by glutathione reductase enzyme coupled fluorescence assay; type: cell-based
Sequence of Phospholipid hydroperoxide glutathione peroxidase GPX4 (Mus musculus) (O70325 whole entry): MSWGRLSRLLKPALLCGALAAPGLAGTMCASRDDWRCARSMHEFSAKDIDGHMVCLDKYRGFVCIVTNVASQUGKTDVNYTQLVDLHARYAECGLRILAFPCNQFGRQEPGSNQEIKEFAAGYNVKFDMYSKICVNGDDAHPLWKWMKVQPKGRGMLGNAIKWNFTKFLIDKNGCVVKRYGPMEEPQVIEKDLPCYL

[6] = target: Phospholipid hydroperoxide glutathione peroxidase GPX4 (Mus musculus) (UniProt O70325); test: Activation of GPX4 in MEF assessed as increase in […] protection against CHOOH-induced cell death at 200 uM; type: cell-based
Homo sapiens [7] = species: Homo sapiens; test: as §2, with “D23A/U46C double” for “D21A/D23A/U46C”
[8] = Antioxidant activity assessed as DPPH radical scavenging activity at 500 uM; type: functional
[9] = Zinc chelating activity in presence of ZnSO4 after 10 mins by crystal violet staining based assay
[10] = Iron chelating activity assessed as compound-Fe2+ complex formation after 10 mins by Prussian blue assay
[11] = Binding affinity to recombinant human GPX4 D21A/D23A double mutant expressed in Escherichia coli M15 by SPR analysis
[12] = Binding affinity to recombinant His-tagged human cytosolic GPX4 U46C mutant expressed in Escherichia coli M15 by SPR analysis
Homo sapiens [13] = species: Homo sapiens; test: as §2, with “D21A/U46C double” for “D21A/D23A/U46C”

| SMILES | Activity (Homo sapiens [1]) | EC150 (Homo sapiens [2]) | Emax (Homo sapiens [3]) | other results |
| --- | --- | --- | --- | --- |
| NS(=O)(=O)c1ccc(NC(S)=NCc2ccccc2)cc1 | 129% | 255 µM | 300% | Activity (Homo sapiens [2]): Dose-dependent effect |
| CN1CCN(C(S)=Nc2ccc(S(N)(=O)=O)cc2)CC1 | 115% | 285 µM | 200% | Activity (Homo sapiens [2]): Dose-dependent effect |
| NCCNS(=O)(=O)c1ccc(NC(=S)NCc2ccc(Cl)cc2)cc1 | < 115% | – | – | – |
| CCNC(=S)Nc1ccc(S(=O)(=O)NCCN)cc1 | < 115% | – | – | – |
| O=S(=O)(NCCO)c1ccc(NC(=S)NCc2ccc(Cl)cc2)cc1 | < 115% | – | – | – |
| NS(=O)(=O)c1ccc(NC(=S)NCCO)cc1 | 167% | 147 µM | 225% | Activity (Homo sapiens [2]): Dose-dependent effect |
| CC(C)(C)NC(=S)Nc1ccc(S(=O)(=O)NCCN)cc1 | 318% | 29 µM | 437% | – |

Second part, led by results:

| Activity (Homo sapiens [1]) | EC150 (Homo sapiens [2]) | Emax (Homo sapiens [3]) | SMILES | other results |
| --- | --- | --- | --- | --- |
| < 115% | – | – | O=S(=O)(NCCO)c1ccc(NC(=S)NC2CCCC2)cc1 | – |
| < 115% | – | – | NCCCCNS(=O)(=O)c1ccc(NC(=S)NC2CCCC2)cc1 | – |
| < 115% | – | – | CCNS(=O)(=O)c1ccc(NC(=S)NC2CCCC2)cc1 | – |
| < 115% | – | – | NCCNS(=O)(=O)c1ccc(NC(=S)NC2CCCCC2)cc1 | – |
| 167% | 121 µM | 209% | CNCCNS(=O)(=O)c1ccc(NC(=S)NC2CCCC2)cc1 | – |
| 219% | 20 µM | 279% | NCCNS(=O)(=O)c1ccc(NC(=S)NC2CCCC2)cc1 | EC150 (Homo sapiens [4]): 382 µM; Activity [5]: Dose-dependent effect; EC150 [5]: 61 µM; Activity [6]: Active; EC150 (Homo sapiens [7]): 235 µM; Activity [8]: inactive; Activity [9]: inactive; Activity [10]: inactive; Kd [11]: 374 µM; Kd [12]: 19 µM; EC150 (Homo sapiens [13]): 367 µM |
| < 115% | – | – | NCCNS(=O)(=O)c1ccc(NC(=S)NC2CCCCCC2)cc1 | – |
| 121% | 301 µM | 214% | NCCCNS(=O)(=O)c1ccc(NC(=S)NC2CCCC2)cc1 | – |
